Values of other authors, collected in US8642581B1, “Compositions and methods for the production of S-adenosylmethionine within the body” (priority 2000, dated 2014).

What was measured:
Depressive symptoms = conditions: 195 patients, 400 mg SAMe parenterally for 15 days
[1] = 35° C. (95° F.)
[2] = tested on: beta-adrenergic binding sites; conditions: rats, chronic administration
brain membrane = conditions: rats, chronic administration

## C[S+](CC[C@H](N)C(=O)O)C[C@H]1O[C@@H](n2cnc3c(N)ncnc32)[C@H](O)[C@@H]1O (some centres unmarked) [SAMe, S-adenosylmethionine]
Depressive symptoms
  serious adverse events: no serious adverse events were reported
Depressive symptoms; after 7 and 15 days
  Depressive symptoms: remitted after both 7 and 15 days
[1]
  time SAMe remains stable: 8 to 10 h
[2]
  age-related decrease in beta-adrenergic binding sites: prevents
Brain membrane
  age-related decrease of brain membrane fluidity: prevents
